{"source": "patent US20050229276A1", "about": "“Method of producing cyclamen root tuber and method of proliferating cyclamen using the same” (Tokyo University of Agricultural, priority 2002, published 2005)", "system": "explants from leaves of cyclamen (species: Flamenco)", "test": "Culture of explants from leaves (comparative)", "type": "cell-based", "conditions": "NAA 0.05 mg/l, 20 explants planted, 30 days", "protocol": "For comparison, the explants from leaves and petioles of cyclamen (species: Flamenco) were cultured for 30 days by changing the contents of BA and sucrose in a basal medium prepared by adding 0.05 mg/l of NAA and 6 g/l of agar to the ⅓ MS medium and having a pH of 7.0. In all the cases, the root tubers were hardly enlarged by culture and rarely regenerated and accordingly, a clonal plant could not be obtained with high reproducibility."}
{"smiles": "c1ccc(CNc2ncnc3[nH]cnc23)cc1", "note": "[BA, benzylaminopurine]", "values": [{"measurement": "Number of enlarged explants", "setting": "BA 0.05 mg/l", "result": 0}, {"measurement": "Number of regenerate explants", "setting": "BA 0.05 mg/l", "result": 0}, {"measurement": "Number of enlarged explants", "setting": "BA 0.05 mg/l, sucrose 30 g/m", "result": 1}, {"measurement": "Number of regenerate explants", "setting": "BA 0.05 mg/l, sucrose 30 g/m", "result": 0}, {"measurement": "Number of enlarged explants", "setting": "BA 0.05 mg/l, sucrose 70 g/m", "result": 0}, {"measurement": "Number of regenerate explants", "setting": "BA 0.05 mg/l, sucrose 70 g/m", "result": 0}, {"measurement": "Number of enlarged explants", "setting": "BA 0.05 mg/l, sucrose 90 g/m", "result": 0}, {"measurement": "Number of regenerate explants", "setting": "BA 0.05 mg/l, sucrose 90 g/m", "result": 0}, {"measurement": "Number of enlarged explants", "setting": "BA 0.1 mg/l", "result": 1}, {"measurement": "Number of regenerate explants", "setting": "BA 0.1 mg/l", "result": 0}, {"measurement": "Number of enlarged explants", "setting": "BA 0.1 mg/l, sucrose 30 g/m", "result": 2}, {"measurement": "Number of regenerate explants", "setting": "BA 0.1 mg/l, sucrose 30 g/m", "result": 1}, {"measurement": "Number of enlarged explants", "setting": "BA 0.1 mg/l, sucrose 70 g/m", "result": 0}, {"measurement": "Number of regenerate explants", "setting": "BA 0.1 mg/l, sucrose 70 g/m", "result": 0}, {"measurement": "Number of enlarged explants", "setting": "BA 0.1 mg/l, sucrose 90 g/m", "result": 0}, {"measurement": "Number of regenerate explants", "setting": "BA 0.1 mg/l, sucrose 90 g/m", "result": 0}, {"measurement": "Number of enlarged explants", "setting": "BA 0.5 mg/l", "result": 4}, {"measurement": "Number of regenerate explants", "setting": "BA 0.5 mg/l", "result": 1}, {"measurement": "Number of enlarged explants", "setting": "BA 0.5 mg/l, sucrose 30 g/m", "result": 2}, {"measurement": "Number of regenerate explants", "setting": "BA 0.5 mg/l, sucrose 30 g/m", "result": 2}, {"measurement": "Number of enlarged explants", "setting": "BA 0.5 mg/l, sucrose 70 g/m", "result": 1}, {"measurement": "Number of regenerate explants", "setting": "BA 0.5 mg/l, sucrose 70 g/m", "result": 0}, {"measurement": "Number of enlarged explants", "setting": "BA 0.5 mg/l, sucrose 90 g/m", "result": 2}, {"measurement": "Number of regenerate explants", "setting": "BA 0.5 mg/l, sucrose 90 g/m", "result": 0}, {"measurement": "Number of enlarged explants", "setting": "BA 1 mg/l", "result": 4}, {"measurement": "Number of regenerate explants", "setting": "BA 1 mg/l", "result": 2}, {"measurement": "Number of enlarged explants", "setting": "BA 1 mg/l, sucrose 30 g/m", "result": 6}, {"measurement": "Number of regenerate explants", "setting": "BA 1 mg/l, sucrose 30 g/m", "result": 3}, {"measurement": "Number of enlarged explants", "setting": "BA 1 mg/l, sucrose 70 g/m", "result": 3}, {"measurement": "Number of regenerate explants", "setting": "BA 1 mg/l, sucrose 70 g/m", "result": 1}, {"measurement": "Number of enlarged explants", "setting": "BA 1 mg/l, sucrose 90 g/m", "result": 5}, {"measurement": "Number of regenerate explants", "setting": "BA 1 mg/l, sucrose 90 g/m", "result": 1}]}
